Experimental data from US7053064B2, “Compounds for the treatment of tobacco dependence and withdrawal” (The McLean Hospital Corporation, priority 2002, dated 2006).
Read-outs that look alike come from different tables or passages of the source.

Legend:
human subjects = test: effects of citicoline on tobacco use (cigarettes smoked per day) versus placebo; type: in vivo; conditions: compared to placebo, FIG. 1
Description: FIG. 1 is a graph of the effects of citicoline on tobacco use.

[1] = cited from earlier work
[2] = cited from earlier work; remark: listed apart in the source
mammals = conditions: cited from earlier work
humans = conditions: cited from earlier work
[3] = major excretion route, % of dose

In the case of `C[N+](C)(C)CCOP(=O)(O)OP(=O)([O-])OC[C@H]1O[C@@H](n2ccc(N)nc2=O)[C@H](O)[C@@H]1O` [CDP-choline, cytidine 5′-diphosphocholine], the “usage of tobacco (number of cigarettes smoked per day)” value (human subjects) is given as “reduces the usage of tobacco”, the “rest of the dose metabolized and retained in tissues” value ([1]; % of dose) is given as 83.9% and the “conversion into circulating metabolites” value ([1]; administered either orally or intravenously) is given as “rapidly converted into the two major circulating metabolites, choline and cytidine”. The excretion via lung [1, 3] was 12.9%, the excretion via urine [1, 3] was 2.4% and the “CDP-choline and/or its metabolites absorbed” value ([1]; orally administered) was “more than 99%”. The excreted in feces ([1]; orally administered) was “less than 1%”, the “reported cases of overdoses” value ([2]; in vivo) was “no reported cases of overdoses” and the “toxicity symptoms on ingestion of large amounts” value ([2]; preclinical studies, salivation, lacrimation, urination, defecation, vomiting) was “common cholinergic symptoms”. The tolerability (mammals; mammals) was “well tolerated”.
For `CN(CC(=O)O)C(=N)N` [Creatine, creatine], the tolerability (humans) is listed as “well tolerated at relatively high doses”.
In the case of `CC(=O)OC[C@H]1O[C@@H](n2ccc(=O)[nH]c2=O)[C@H](OC(C)=O)[C@@H]1OC(C)=O` [triacetyl uridine], the tolerability (mammals; in vivo) is listed as “well tolerated”.
In the case of `O=c1ccn([C@@H]2O[C@H](CO)[C@@H](O)[C@H]2O)c(=O)[nH]1` [uridine], the tolerability (humans) is given as “well tolerated” and the tolerability (mammals; mammals) is given as “well tolerated”.
